Experimental data from patent US20160361309A1, “METHODS OF TREATING CANCER PATIENTS RESPONDING TO EZH2 INHIBITOR GSK126” (GLAXOSMITHKLINE INTELLECTUAL PROPERTY (NO.2) LIMITED, priority 2014, published 2016).

Tests used:
[1] = test system: NALM-6 cells; experiment: Gene expression profiling (Affymetrix U133 Plus 2.0), NALM-6; type: cell-based, human; conditions: NALM-6, 500 nM GSK126, 72 hours
Experimental: (§1) FIG. 6. Activation of gene expression in A687V EZH2, but not WT EZH2, cells. A, Gene expression profiling of SUP-B8 and NALM-6 cells treated for 72 hours with 0.1% DMSO or 500 nM GSK126. […] Green, lower expression. Red, higher expression.
(§2) SUP-B8 and NALM-6 cells (2×10^5/well) were seeded into six-well tissue culture plates 24 hours before treatment with 0.1% DMSO or 500 nM GSK126 for 72 hours. Cells were collected into Trizol reagent (Invitrogen) and total RNA was isolated via phenol:chloroform extraction and the RNeasy kit (Qiagen) according to the manufacturer's instructions. Total RNA was labeled and hybridized to Affymetrix Human Genome U133 Plus 2.0 oligonucleotide microarrays arrays according to the manufacturer's instructions (Affymetrix, Santa Clara, Calif., USA). CEL files were processed and differentially expressed probe sets were determined as described previously (McCabe et al., 2012b). Briefly, significant probe sets were identified after filtering for detection, an average fold-change >2 or <-2, and p-values adjusted for multiple testing correction by FDR (Benjamini Hochberg)<0.1.

[2] = test system: H3K27me3 in SUP-B8 cells; experiment: Western blot analysis of H3K27 methylation after GSK126 treatment; type: cell-based, human; conditions: SUP-B8 compared with the most sensitive EZH2 WT cell line NALM-6, 72 hours
Experimental: (§3) FIG. 4. A687V EZH2 mutant ALL is highly dependent on EZH2 activity. A, Sensitivity of ALL cell lines to EZH2 inhibition with GSK126. Cells were treated with a 20-point 2-fold dilution series of GSK126 (range 36 μM-70 pM) for 6 days and cell growth was measured using Cell Titer-Glo (Promega). Data are represented as the concentration of GSK126 required to inhibit 50% of growth (growth IC50). B, Western blot analysis of H3K27me3, H3K27me2, H3K27me1, and total histone H3 following treatment of NALM-6 or SUP-B8 cell lines with varying concentrations of GSK126 for 72 hours.
Cell lysate preparation and western blotting were performed as previously described (McCabe et al., 2012a). Antibodies utilized included: EZH2 (BD Transduction Labs), histone H3 (Abcam), H3K27me1 (ActiveMotif), H3K27me2 (Cell Signaling Technology), H3K27me3 (Cell Signaling Technology), EED (Santa Cruz), SUZ12 (Cell Signaling Technology), or Actin (Sigma). Histone methylation antibody specificity was previously confirmed using full-length recombinant methylated histones harboring mono-, di-, or tri-methylation at H3K4, H3K9, H3K27, H3K36, and H3K79 (McCabe et al., 2012a).

[3] = test system: NALM-6 cells; experiment: Caspase 3/7 assay (Caspase-Glo 3/7), NALM-6; type: cell-based, human; conditions: NALM-6 (EZH2 WT), out to 6 days
Source text: (§4) FIG. 5. […] Temporal kinetics of GSK126-induced growth inhibition (A and C) and caspase 3/7 activation (B and D) in NALM-6 (A and B) and SUP-B8 (C and D) over a 6 day time course using Cell Titer-Glo or Caspase-Glo 3/7 (Promega), respectively.
(§5) For detection of caspase-3/7 activity, Caspase-Glo 3/7 (Promega) was utilized according to the manufacturer's directions. Values were normalized to CellTiter Glo (Promega) levels at each time point and expressed as a percentage of vehicle treated control.

[4] = test system: Y641 and A677 EZH2 mutant DLBCL cell lines; conditions: many Y641 and A677 EZH2 mutant DLBCL cell lines; previously shown; cited from earlier work
[5] = test system: EZH2 WT cell lines (B cell ALL panel); experiment: 6-day cell proliferation assay (CellTiter-Glo), EZH2 WT B cell ALL cell lines; type: cell-based; conditions: Homo sapiens, 144 h, 6 days, range over cell lines, read-out: growth IC50 values
Experimental: as §3
(§6) Cells were evaluated for sensitivity to GSK126 in a 6-day proliferation assay as described previously (McCabe et al., 2012b). Briefly, cells were seeded into 384 well plates at a density that permitted proliferation for 6 days. Cells were then treated in duplicate with a 20-point 2-fold dilution series of GSK126 or 0.147% DMSO. After incubation with compound for 6 days, cell proliferation was evaluated using CellTiter-Glo (Promega) according to the manufacturer's specifications. Data were fit with a 4-parameter equation to generate a concentration response curve and to determine the concentration of GSK126 required to inhibit 50% of growth (gIC50).

[6] = test system: A687V EZH2 mutant SUP-B8 cell line; experiment: 6-day cell proliferation assay (CellTiter-Glo), SUP-B8; type: cell-based, human
Experimental: as §3, §4
The SUP-B8 acute lymphoblastic leukemia cell line which harbors a heterozygous A687V EZH2 mutation was kindly provided by Dr. Ronald Levy (Stanford University) and was maintained in RPMI-1640 media (MediaTech) supplemented with 10% fetal bovine serum (FBS) (Sigma-Aldrich). All other cell lines were obtained from either ATCC or DSMZ and maintained in the recommended cell culture media.
as §6

[7] = test system: NALM-6 cells; experiment: Growth inhibition time course (CellTiter-Glo), NALM-6; type: cell-based, human; conditions: NALM-6 (EZH2 WT), out to 6 days
Experimental: as §4, §6

[8] = test system: SUP-B8 cells; experiment: Gene expression profiling (Affymetrix U133 Plus 2.0), SUP-B8; type: cell-based, human; conditions: SUP-B8, 500 nM GSK126, 72 hours
Experimental: as §1, §2

[9] = test system: SUP-B8 cells; experiment: Caspase 3/7 assay (Caspase-Glo 3/7), SUP-B8; type: cell-based, human; conditions: SUP-B8, beginning on day 5
Source text: as §4, §5

Question: For `CC[C@H](C)n1cc(C)c2c(C(=O)NCc3c(C)cc(C)[nH]c3=O)cc(-c3ccc(N4CCNCC4)nc3)cc21` [GSK126], which down-regulated probes [1] is on record?
Answer: The down-regulated probes was 10.

Question: And the up-regulated probes [1]?
Answer: The up-regulated probes was 35.

Question: What about the “demethylation of H3K27me3” value [2] of the same compound?
Answer: The value was “comparable, or slightly reduced, demethylation of H3K27me3”.

Question: What about the “activation of caspases 3 or 7” value [3] of the same compound?
Answer: Its value is “no activation of caspases 3 or 7”.

Question: What about the inhibition of proliferation [4] of the same compound?
Answer: Its inhibition of proliferation is “effectively inhibit the proliferation”.

Question: And the IC50 [5]?
Answer: Its IC50 is 2500 to 7800 nM.

Question: And the IC50 ([6]; Homo sapiens, 144 h, SUP-B8 (heterozygous A687V EZH2), 6 days, CellTiter-Glo, read-out: dose required to inhibit 50% of cell proliferation (growth IC50))?
Answer: Its IC50 is 441 nM.

Question: What about the “growth inhibition over 6 day time course” value ([6]; SUP-B8, after 4 days of treatment, maximal on day 6) of the same compound?
Answer: The value was “dose-dependent growth inhibition”.

Question: What about the “doses at which cell number losses were evident” value ([6]; SUP-B8, day 6) of the same compound?
Answer: The value was “above 100 nM”.

Question: What about the “growth inhibition over 6 day time course” value [7] of the same compound?
Answer: The value was “little growth inhibition”.

Question: And the up-regulated probes [8]?
Answer: Its up-regulated probes is 643.

Question: What about the “caspase 3/7 activity” value [9] of the same compound?
Answer: Its value is “increased in a dose-dependent fashion”.
